Data as given in patent US12077523B2, “N-(isopropyl-triazolyl)pyridinyl)-heteroaryl-carboxamide derivatives and use thereof” (HK INNO.N CORPORATION, priority 2018, dated 2024).
pIC50: −log10 of the molar value.

Target: T1, ASK-1 enzyme (Homo sapiens, UniProt Q99683)
T1 construct: purchased Signal Chem M13-11G-10
Assay: Inhibitory ability against ASK-1 enzyme activity (ADP-Glo Kinase Assay)
Type: biochemical
Settings: 250 μM ATP, MBP substrate, 15 ng ASK-1 enzyme, 30° C. 40 minutes
Description: Experimental Example 1: Assay of Inhibitory Ability Against ASK-1 Enzyme Activity (ADP-Glo™ Kinase Assay)
In order to evaluate the inhibitory ability of the compounds of Examples 1 to 24 against ASK-1 enzyme activity, the following experiment was carried out using ADP-Glo™ (Promega, Cat. No. V9101). Each of the compounds was prepared into a solution at concentrations of 0.32 nM, 1.6 nM, 8 nM, 40 nM, 200 nM, 1,000 nM by adding a kinase buffer solution (40 mM Tris, 20 mM MgCl2, 0.1 mg/mL bovine serum albumin in H2O). Subsequently, 250 μM of ATP (Promega, Cat. No. V915A) and 0.5 μg/μL of MBP substrate (Signal Chem, Cat. No. 42-51N) were added thereto, and the mixture was reacted at 30° C. for 40 minutes in the presence of 15 ng of ASK-1 enzyme (Signal Chem, Cat. No. M13-11G-10). Then, the ADP-Glo™ reagent and a kinase detection reagent were sequentially added thereto and reacted for 40 minutes and 10 minutes, respectively. After completion of the reaction, luminescence was measured using a Synergy™ NEO microplate reader (BioTEK, NEOB-1311189).
The inhibitory ability of the compounds of Examples 1 to 24 against ASK-1 enzyme activity was verified by analyzing data from the measured RLU values. Specifically, the inhibitory ability against ASK-1 enzyme activity was assessed by deriving the residual activity percentage of the ASK-1 enzyme in the samples treated with the compounds at the concentration to be tested, while using the RLU value of the sample not treated with the compounds as a 100% control.

T1 sequence (Q99683 649-946 limits assumed): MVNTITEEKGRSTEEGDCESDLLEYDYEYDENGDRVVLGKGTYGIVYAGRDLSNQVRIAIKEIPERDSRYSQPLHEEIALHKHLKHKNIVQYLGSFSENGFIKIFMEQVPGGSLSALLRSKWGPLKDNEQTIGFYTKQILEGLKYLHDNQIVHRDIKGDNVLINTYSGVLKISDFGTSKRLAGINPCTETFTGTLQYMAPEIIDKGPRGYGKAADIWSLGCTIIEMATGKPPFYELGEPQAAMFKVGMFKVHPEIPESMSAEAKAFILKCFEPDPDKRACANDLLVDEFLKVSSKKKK

| SMILES | pIC50 |
| --- | --- |
| Cc1ccc(-c2ccc(C(=O)Nc3cccc(-c4nncn4C(C)C)n3)[nH]2)cc1F [Example 19, 5-(3-fluoro-4-methylphenyl)-N-(6-(4-isopropyl-4H-1,2,4-triazol-3-yl)pyridin-2-yl)-1H-pyrrole-2-carboxamide] | 8.28 |
| Cc1cccc(-c2ccc(C(=O)Nc3cccc(-c4nncn4C(C)C)n3)[nH]2)c1 [Example 14, N-(6-(4-isopropyl-4H-1,2,4-triazol-3-yl)pyridin-2-yl)-5-m-tolyl-1H-pyrrole-2-carboxamide] | 8.24 |
| Cc1ccc(-c2ccc(C(=O)Nc3cccc(-c4nncn4C(C)C)n3)[nH]2)cc1C [Example 18, 5-(3,4-dimethylphenyl)-N-(6-(4-isopropyl-4H-1,2,4-triazol-3-yl)pyridin-2-yl)-1H-pyrrole-2-carboxamide] | 8.32 |
| Cc1ccccc1-c1ccc(C(=O)Nc2cccc(-c3nncn3C(C)C)n2)[nH]1 [Example 22, N-(6-(4-isopropyl-4H-1,2,4-triazol-3-yl)pyridin-2-yl)-5-o-tolyl-1H-pyrrole-2-carboxamide] | 8.29 |
| CC(C)n1cnnc1-c1cccc(NC(=O)c2ccc(-c3ccc(F)c(Cl)c3)[nH]2)n1 [Example 20, 5-(3-chloro-4-fluorophenyl)-N-(6-(4-isopropyl-4H-1,2,4-triazol-3-yl)pyridin-2-yl)-1H-pyrrole-2-carboxamide] | 8.28 |
| CC(C)n1cnnc1-c1cccc(NC(=O)c2cc(-c3ccccc3)c[nH]2)n1 [Example 6, N-(6-(4-isopropyl-4H-1,2,4-triazol-3-yl)pyridin-2-yl)-4-phenyl-1H-pyrrole-2-carboxamide] | 8.19 |
| Cc1c[nH]c(C(=O)Nc2cccc(-c3nncn3C(C)C)n2)c1 [Example 1, N-(6-(4-isopropyl-4H-1,2,4-triazol-3-yl)pyridin-2-yl)-4-methyl-1H-pyrrole-2-carboxamide] | 8.00 |
| Cc1ccc(C(=O)Nc2cccc(-c3nncn3C(C)C)n2)[nH]1 [Example 8, N-(6-(4-isopropyl-4H-1,2,4-triazol-3-yl)pyridin-2-yl)-5-methyl-1H-pyrrole-2-carboxamide] | 7.46 |
| CCc1c[nH]c(C(=O)Nc2cccc(-c3nncn3C(C)C)n2)c1 [Example 4, 4-ethyl-N-(6-(4-isopropyl-4H-1,2,4-triazol-3-yl)pyridin-2-yl)-1H-pyrrole-2-carboxamide] | 8.08 |
| Cc1ccc(-c2ccc(C(=O)Nc3cccc(-c4nncn4C(C)C)n3)[nH]2)cc1 [Example 10, N-(6-(4-isopropyl-4H-1,2,4-triazol-3-yl)pyridin-2-yl)-5-p-tolyl-1H-pyrrole-2-carboxamide] | 7.99 |
| CSc1ccc(-c2ccc(C(=O)Nc3cccc(-c4nncn4C(C)C)n3)[nH]2)cc1 [Example 21, N-(6-(4-isopropyl-4H-1,2,4-triazol-3-yl)pyridin-2-yl)-5-(4-(methylthio)phenyl)-1H-pyrrole-2-carboxamide] | 8.51 |
| CC(C)n1cnnc1-c1cccc(NC(=O)c2ccc(-c3ccccc3)[nH]2)n1 [Example 9, N-(6-(4-isopropyl-4H-1,2,4-triazol-3-yl)pyridin-2-yl)-5-phenyl-1H-pyrrole-2-carboxamide] | 8.24 |
| CCOc1ccc(-c2ccc(C(=O)Nc3cccc(-c4nncn4C(C)C)n3)[nH]2)cc1 [Example 24, 5-(4-ethoxyphenyl)-N-(6-(4-isopropyl-4H-1,2,4-triazol-3-yl)pyridin-2-yl)-1H-pyrrole-2-carboxamide] | 8.12 |
| CC(C)n1cnnc1-c1cccc(NC(=O)c2ccc(-c3cccs3)[nH]2)n1 [Example 17, N-(6-(4-isopropyl-4H-1,2,4-triazol-3-yl)pyridin-2-yl)-5-(thiophene-2-yl)-1H-pyrrole-2-carboxamide] | 8.10 |
| Cc1cc(C)cc(-c2ccc(C(=O)Nc3cccc(-c4nncn4C(C)C)n3)[nH]2)c1 [Example 15, 5-(3,5-dimethylphenyl)-N-(6-(4-isopropyl-4H-1,2,4-triazol-3-yl)pyridin-2-yl)-1H-pyrrole-2-carboxamide] | 8.07 |
| CC(C)n1cnnc1-c1cccc(NC(=O)c2ccc(-c3ccc(Cl)cc3)[nH]2)n1 [Example 16, 5-(4-chlorophenyl)-N-(6-(4-isopropyl-4H-1,2,4-triazol-3-yl)pyridin-2-yl)-1H-pyrrole-2-carboxamide] | 8.27 |
| CC(C)n1cnnc1-c1cccc(NC(=O)c2ccc[nH]2)n1 [Example 7, N-(6-(4-isopropyl-4H-1,2,4-triazol-3-yl)pyridin-2-yl)-1H-pyrrole-2-carboxamide] | 7.94 |
| CC(C)n1cnnc1-c1cccc(NC(=O)c2ccc(-c3ccc(F)cc3)[nH]2)n1 [Example 23, 5-(4-fluorophenyl)-N-(6-(4-isopropyl-4H-1,2,4-triazol-3-yl)pyridin-2-yl)-1H-pyrrole-2-carboxamide] | 8.23 |
| Cc1ncc(-c2ccc(C(=O)Nc3cccc(-c4nncn4C(C)C)n3)[nH]2)cn1 [Example 12, N-(6-(4-isopropyl-4H-1,2,4-triazol-3-yl)pyridin-2-yl)-5-(2-methylpyrimidine-5-yl)-1H-pyrrole-2-carboxamide] | 8.00 |
| Cc1ccc(-c2c[nH]c(C(=O)Nc3cccc(-c4nncn4C(C)C)n3)c2)cc1 [Example 5, N-(6-(4-isopropyl-4H-1,2,4-triazol-3-yl)pyridin-2-yl)-4-p-tolyl-1H-pyrrole-2-carboxamide] | 8.22 |
| Cc1cccc(-c2c[nH]c(C(=O)Nc3cccc(-c4nncn4C(C)C)n3)c2)c1 [Example 2, N-(6-(4-isopropyl-4H-1,2,4-triazol-3-yl)pyridin-2-yl)-4-m-tolyl-1H-pyrrole-2-carboxamide] | 8.40 |
| CC(C)n1cnnc1-c1cccc(NC(=O)c2ccc(-c3ccc(S(C)(=O)=O)cc3)[nH]2)n1 [Example 13, N-(6-(4-isopropyl-4H-1,2,4-triazol-3-yl)pyridin-2-yl)-5-(4-(methylsulfonyl)phenyl)-1H-pyrrole-2-carboxamide] | 8.36 |
| COCc1c[nH]c(C(=O)Nc2cccc(-c3nncn3C(C)C)n2)c1 [Example 3, N-(6-(4-isopropyl-4H-1,2,4-triazol-3-yl)pyridin-2-yl)-4-(methoxymethyl)-1H-pyrrole-2-carboxamide] | 8.11 |
| CCc1ccc(C(=O)Nc2cccc(-c3nncn3C(C)C)n2)[nH]1 [Example 11, 5-ethyl-N-(6-(4-isopropyl-4H-1,2,4-triazol-3-yl)pyridin-2-yl)-1H-pyrrole-2-carboxamide] | 7.30 |
